Patent US20120035180A1, “PHARMACEUTICAL COMPOSITION FOR TREATING CANCER COMPRISING CHLORIN E6-FOLIC ACID CONJUGATE COMPOUND AND CHITOSAN” (priority 2009, published 2012)

What was measured:
HeLa tumor cells = assay: Cytotoxicity (antiproliferative assay) in the absence of light exposure; type: cell-based; conditions: 24 hr incubation
Procedure: Cytotoxicity was analyzed, considering the intensity of proliferative processes in cells, photosensitizer concentration, and dose of optical power. For each point, 3 flasks with cell monolayer were used.
The monolayer culture of HeLa tumor cells was chosen and used as the cell.
The culture of HeLa tumor cells was grown in nutrient medium 199 or in nutrient medium containing hemohydrolyzate supplemented with 10% fetal bovine serum and […] of kanamycin.
On day 4 after the cell culture was inoculated in the flasks (100,000 cells per 2.0 ml of nutrient medium), the photosensitizer was added at a concentration of 1, 2.5, 5.0, 10.0, 20.0, or 30.0 mg/ml.
Flasks with light-protective cover (dark cytotoxicity) were incubated at 37.5° C. for 1 hour. The cells were washed with Hank's solution 4 times. 2.0 ml of fresh nutrient medium were added, and the cells were irradiated at the temperature of melting ice for 5, 10, 15 or 20 mins by the light flux of a “METALAZ” laser medical device (wavelength: 627.8 nm, 578.2 or 510.6 nm) or “LD 680-2000” (wavelength: 670-690 nm), depending on the wavelength of maximum spectral absorption of the studied photosensitizer, at a dose of 40 J/cm^2. After 20-24 hours, the number of tumor cell was counted in Goriaev's chamber.

Hela cells [1] = assay: Accumulation in Hela cells; type: cell-based; conditions: 2×10^−7 M/l, 37° C.
Procedure: The cellular accumulation and the targeted delivery of the photoactive compounds were investigated using Hela cells, which is one of the numerous tumor cell types that overexpress folate receptors.
Cells were cultivated for 3 days in medium 199, and transferred to Hank's solution/medium 199 (9/1). After 3 hours, the cell were collected by trypsin treatment from the substrate and placed in Hank's solution (10^5 κπ/ml). To cell suspensions, chlorin e6 conjugates were added at a concentration of 2×10^−7 M/l, and incubated at 37° C. After 1, 5, 10, 15, and 24 hours, the samples were centrifuged, the pellet was washed with the cooled Hank's solution, and transferred to Hank's solution at a concentration being equal to that in the initial suspension.

Hela cells [2] = assay: Phototoxicity, 24 h incubation, 1.5-15 joule/cm^2; type: cell-based; conditions: 670-690 nm
Procedure: In other experiment, the cells were incubated with photosensitizers at 37° C. for 24 hours, and irradiated by exposed on ice by a laser medical device “LD 680-2000” (wavelength of 670-690 nm) in a dose of 1.5-15 joule/cm^2.

HeLa cell culture = assay: Phototoxicity (photodynamic activity), 3.5 h incubation, 3.3 joule/cm^2; type: cell-based; design: number of HELA cells (relative to the control): unit not given here; conditions: incubation 3.5 hours
Procedure: To examine the photodynamic effects of a photosensitizer on a HeLa cell culture, the photosensitizer solution was added to the nutrient media at a final concentration of 0.1, 0.5, 1.0, 5.0 or 10 mcg/ml on day 3 after transplanting the cell culture into flasks. The flasks were wrapped with a light protecting cover, and incubated at 37° C. for 3.5 hours. Then, the cells were washed with Hank's solution, and exposed on ice by a laser medical device “LD 680-2000” (wavelength: 670-690 nm) at a dose of 3.3 joule/cm^2. After 20-24 hours, the available cell monolayer was dispersed using a 0.02%-Versene solution, and the number of tumor cells was calculated in Goriaev's chamber. For each point, 3 flasks were used.

[3] = system: transporter of restored vectors (TRV); conditions: cited from earlier work

SMILES | cell survival rates (HeLa tumor cells) | concentration in Hela cells (Hela cells [1]; incubation time 1 hours) | concentration in Hela cells (Hela cells [1]; incubation time 5 hours) | concentration in Hela cells (Hela cells [1]; incubation time 10 hours) | concentration in Hela cells (Hela cells [1]; incubation time 15 hours) | concentration in Hela cells (Hela cells [1]; incubation time 24 hours) | phototoxicity / photosensitivity in survival test (Hela cells [2]) | number of HELA cells (relative to the control) (HeLa cell culture; photoexposure 3.3 joule/cm^2, conc. 0.1 mcg/ml) | number of HELA cells (relative to the control) (HeLa cell culture; photoexposure 3.3 joule/cm^2, conc. 0.5 mcg/ml) | number of HELA cells (relative to the control) (HeLa cell culture; photoexposure 3.3 joule/cm^2, conc. 1.0 mcg/ml) | number of HELA cells (relative to the control) (HeLa cell culture; photoexposure 3.3 joule/cm^2, conc. 5.0 mcg/ml) | number of HELA cells (relative to the control) (HeLa cell culture; photoexposure 3.3 joule/cm^2, conc. 10.0 mcg/ml) | affinity of the carrier (TRV) [3]
C=Cc1c(C)c2cc3nc(c(CC(=O)O)c4[nH]c(cc5nc(cc1[nH]2)C(C)=C5CC)c(C)c4C(=O)O)C(CCC(=O)O)C3C (stereo not drawn) [chlorin e6, 13-carboxy-17-[2-carboxyethyl]-15-carboxymethyl-17,18-trans-dihydro-3-vinyl-8-ethyl-2,7,12,18-tetramethylporphyrin] | about 90% | 0.86 relative units/10^4cl. | 1.45 relative units/10^4cl. | 1.72 relative units/10^4cl. | 0.81 relative units/10^4cl. | 0.40 relative units/10^4cl. | little phototoxicity | 87.1 | 83.6 | 64.7 | 19 | 3.8 | –
Nc1nc(O)c2nc(CNc3ccc(C(=O)N[C@@H](CCC(=O)O)C(=O)O)cc3)cnc2n1 [folic acid, N-[4(2-Amino-4-hydroxypteridin-6-ylmethylamino)benzoyl]-L(+)-glutamic acid] | – | – | – | – | – | – | – | – | – | – | – | – | about 200 μM
